Entries after “also recorded” stand apart in the source; their conditions may differ.
Legend:
[1] = Strain m6 cells resuspended in sterile MSM (mineral salt medium); conditions: Sphingopyxis sp. m6, 30 °C, up to six days
[2] = CEs from HMBP-pET28a/BL21 (negative control) in sterile water; conditions: HMBP-pET28a/BL21, 37 °C, up to 12 h
[3] = suspension of HMBP-pET28a/BL21 (negative control) in sterile water; conditions: HMBP-pET28a/BL21, 37 °C, up to 144 h
[4] = Strain m6 cells in MSM, pH 7, at 40 °C; conditions: Sphingopyxis sp. m6, 40 °C, up to six days
[5] = natural microbial communities in sediments; conditions: cited from earlier work
[6] = test system: recombinant MlrA; experiment: CEs (cell-free extracts) of recombinant mlrA-HMBP-pET28a/BL21 in sterile water; conditions: mlrA-HMBP-pET28a/BL21, 37 °C, up to 48 h
[7] = test system: MlrA; experiment: suspension of intact recombinant mlrA-HMBP-pET28a/BL21 in sterile water; conditions: mlrA-HMBP-pET28a/BL21, 37 °C, up to 144 h
[8] = Sphingomonas sp. B-9 cells; conditions: cited from earlier work

- not cleaved [2]: remaining essentially unchanged
- not cleaved [3]: remaining essentially unchanged
- cleaved bond [6]: Arg-Adda, first_seen
- cleaved bond [7]: Arg-Adda, first_seen
Substance: D-MeAsp, L-Arg, Adda, D-Glu, and Mdhb
- cleaved bond [1]: Arg-Adda, first_seen; also recorded: Adda-Glu; also recorded: Glu-Mdhb; also recorded: Mdhb-MeAsp
- not cleaved [4]: the toxin concentration barely decreased
- fragment found [5]: linear NOD and Adda and H-Glu-Mdhb-MeAsp-Arg-OH and H-Adda-Glu-Mdhb-MeAsp-OH and H-Adda-Glu-Mdhb-MeAsp-Cit-OH
- fragment found [8]: linear NOD and Adda
